For test [1], the system named is somatostatin receptor (GH4 C1 membranes). Briefly: Binding, CHAPS solubilization and recovery of SRIF receptor:[^125 I]Tyr11-S14 complex (FIG. 1, Table 1). On the set-up: species or system rat. The settings on record: for CPM recovered, B. Nonspecific: 10^-6 M cold S14; for CPM recovered, A. Total: without cold S14. As for the experimental part: FIG. 1 illustrates separation of receptor-bound and free [^125 I]Tyr11-S14. Radioligand is bound to GH4 C1 membranes as described in "Materials and Methods". The binding incubations contain 2 mg membrane protein and 6×10^6 cpm of radioligand in 8 ml. A non-specific binding sample is identical except for the addition of 1 uM cold S14. Initial cpm bound were 1.43×10^6 (total) and 0.65×10^6 (non-specific). After the binding step, membranes are resuspended at 1 […] in the presence of 1% CHAPS detergent in a buffer containing 25 mM Tris (pH 8), 10% glycerol and 0.2 mM CaCl2 (solubilization buffer). A protease inhibitor cocktail ("100×4 pase" described in "Materials and Methods") is also added as 1% of final volume. Solubilization is allowed to proceed for 1 hour on ice, and then the mixture is centrifuged for 30 minutes at 100,000×g. CPM in the 100,000×g supernatant were 0.61×10^6 (total) and 0.29×10^6 (non-specific). Free [^125 I]Tyr11-S14 is added to the non-specific binding sample to give equal cpm in the two samples. Then 0.25 ml aliquots of each supernatant ([…]) are loaded onto 0.8×13 cm columns of Sephadex G-50. The columns are eluted at a flow rate of 0.7 ml/min with solubilization buffer + 1% BSA. 0.18 ml fractions are collected and counted for radioactivity.
0.18 ml samples are collected. […] The mixture is held on ice for 15 minutes.
[^125 I]Tyr11-S14 is bound to GH4 C1 membranes as described above ("Methods: Receptor Binding Methods, 4."), except that these binding assays contain 2 mg membrane protein in 8 ml (0.25 mg membrane protein/ml). Radioligand is […]. A non-specific binding sample is identical except for the addition of 1 uM cold S14. Initial cpm bound is 1.43×10^6 (total) and 0.65×10^6 (nonspecific). After the binding step, membranes are solubilized in solubilization buffer containing 0.2 mM CaCl2 and 1% CHAPS ("Methods: Membrane Solubilization"). CPM in the 100,000×g supernatants are 0.61×10^6 (total) and 0.29×10^6 (nonspecific). Free [^125 I]Tyr11-S14 is added to the nonspecific binding sample to give equal cpm in the two samples. Then 0.25 ml aliquots of each supernatant (75-80,000 cpm) are loaded onto 0.8×13 cm columns of Sephadex G-50. The columns are eluted as described in "Methods: Assay of Solubilized Receptors, 1." and the fractions counted for radioactivity.
A peak of high MW material eluting in the column void volume (peak I; 34% of total cpm) contain specifically bound radioactivity. […] Peak II in FIG. 1 represents free [^125 I]Tyr11-S14, and is the major peak in the nonspecific binding sample. In FIG. 1 it is important to note that just before applying samples to the columns, free [^125 I]Tyr11-S14 is added to the non-specific binding sample to equalize the cpm in the two samples. […] The GFB/PEI method is used in subsequent experiments.
0.25 ml samples containing solubilized R:L complex, from the preparation described in FIG. 1 are separated from free radioligand either by: (1) chromatography on Sephadex G-50 (see FIG. 1), (2) Precipitation with polyethyleneglycol+bovine gamma globulin with collection of the precipitates on GFB filters or (3) adsorption on polyethyleneimine-coated,GFB filters (for methods 2 and 3 see "Methods: Assay of Solubilized Receptors, 2 and 3"). Radioactivity recovered in peak I (Method 1) or on filters (Methods 2 and 3) is compared in the Table.

The target of test [2] is T1, SRIF receptor (GH4 C1 membranes) (Rattus norvegicus, UniProt P30680).
T1 construct: GH4 C1 rat pituitary tumor cells; endogenous in cells; host or cells: GH4 C1 rat pituitary tumor cells (isolated membranes)
T1 sequence (P30680 whole entry): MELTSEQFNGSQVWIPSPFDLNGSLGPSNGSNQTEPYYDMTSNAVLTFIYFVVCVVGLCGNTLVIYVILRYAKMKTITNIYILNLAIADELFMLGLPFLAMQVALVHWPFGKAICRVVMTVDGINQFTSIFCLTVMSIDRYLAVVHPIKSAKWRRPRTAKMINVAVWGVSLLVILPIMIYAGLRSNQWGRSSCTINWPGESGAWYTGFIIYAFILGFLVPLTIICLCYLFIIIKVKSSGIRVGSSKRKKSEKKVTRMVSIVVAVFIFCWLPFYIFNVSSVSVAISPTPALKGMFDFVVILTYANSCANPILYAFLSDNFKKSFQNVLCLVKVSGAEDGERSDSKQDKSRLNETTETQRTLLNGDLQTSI
Briefly: Scatchard analysis of [^125 I]-labelled ligand binding to GH4 C1 membranes (FIG. 5). As to conditions: read-out: dissociation constant (KD). As for the experimental part: 1. Standard Binding Assays--Binding assays are done in a binding buffer containing 50 mM HEPES (pH 7.4), 0.5% BSA and 5 mM MgCl2. The standard assay for [^125 I]SRIF analog binding to GH4 CL membranes, done in 96 well microtiter plates (Dynatech Immulon II Removawell plates), is carried out as follows: 1. Radioligand is diluted in binding buffer+PMSF/Baci to the desired cpm per vol. of 50 μl and then 50 μl aliquots are added to the wells. For non-specific binding samples, 5 μl of 40 μM cold S14 is also added per well. 2. Binding is initiated by adding 150 μl per well of membrane diluted to the desired concentration (10-30 ug membrane protein/well) in binding buffer+PMSF/Baci. Plates are then covered with Linbro mylar plate sealers (Flow Labs) and placed on a Dynatech Microshaker II and binding is allowed to proceed at room temperature for 1-2 hours. Binding is stopped by centrifuging the plate for 15 minutes at 2,000×g. The supernatants are dumped off and membrane pellets washed once by addition of 200 μl of ice cold binding buffer, brief shaking and recentrifugation. Finally the individual wells are placed in 12×75 mm tubes and counted in an LKB Gammamaster counter (78% efficiency). Specific binding by this method is identical to that measured when free ligand is removed by rapid (3-5 seconds) filtration and washing on polyethyleneimine-coated glass fiber filters.
3. […]

Test [3] has as its system streptavidin (SA-agarose). Briefly: Binding of [^125 I]-labelled biotinyl-SRIFs (solubilized R:L complex) to immobilized streptavidin (Table 3). As for the experimental part:
3. Adsorption of solubilized R:L complex to streptavidin. Immobilized streptavidin (streptavidin cross-linked to 6% beaded agarose, Pierce Chemical Co.; "SA-agarose") is washed in solubilization buffer and added to the solubilized membranes as 1/30 of the final volume. This mixture is incubated with constant stirring by end-over-end rotation for 4-5 hours at 4°-10° C. Then the mixture is applied to a column and the non-bound material is washed through. Binding of radioligand to SA-agarose is determined by comparing cpm in the 100,000×g supernatant with that in the column effluent after adsorption to SA-agarose. Finally, the column is washed with 12-15 column volumes of solubilization buffer+0.15% deoxycholate:lysolecithin+1/500 (vol/vol) 100×4pase.
To compare the three biotinyl-SRIF analogs in terms of binding to streptavidin, the following experiment is done. [^125 I]Bio-SRIF analogs are bound to GH4 C1 membranes as described ("Methods: Receptor Binding Methods, 4"). All radioligands are at a concentration of 0.77×10^6 cpm/ml. For each radioligand, a control for non-specific binding is done in the presence of 1 uM cold S14. CPM bound/mg membrane protein after the binding step are as follows: [^125 I]Bio-6C-S14=755,020 (total) and 43,361 (non-specific); [^125 I]Bio-12C=S14=633,134 (total) and 39,538 (nonspecific); [^125 I]Bio-S28=1,065,512 (total) and 35,049 (nonspecific). The membrane pellets are solubilized in solubilization buffer containing 0.15% deoxycholate:lysolecithin and 0.2 mM MgCl2 as described ("Methods: Membrane Solubilization"). […] One ml samples of solubilized membranes are incubated with 0.05 ml vols of streptavidin-agarose at 4°-10° C. on a tube rotator for the times shown. Non-specific binding samples are not done due to the low levels of non-specific binding. At the times shown, the SA beads are spun down and 100 ul samples of supernatant are counted. The cpm are compared to initial cpm in the sample and % binding to SA is calculated from this. Also, it should be noted that binding of cpm from the supernatant is considered to parallel the binding of R:L complex. Several observations confirm that this is a valid assumption.
CPM are determined for 100 ul samples of initial 100,000×g supernatant (containing soluble R:L complex) and supernatant after incubation with SA-agarose for times shown.

In test [4] the target is T1, SRIF receptor (GH4 C1 membranes). As to the kind of experiment: Binding of [^125 I] biotinyl-SRIF ligands to GH4 C1 membranes (CPM bound/mg). As to conditions: radioligand 0.77×10^6 cpm/ml. As for the experimental part:
4. Larger scale binding assays to obtain membrane pellets for studies on solubilization of receptor:ligand complex and for receptor purification are also carried out. These are identical to the standard assays except that: (a) Binding is carried out in polypropylene tubes in volumes from 1-250 ml, with the wash step being done in the same volume as initially used for binding, (b) Concentration of membrane protein is always 0.5 mg/ml, (c) For receptor purification, BSA concentration in the binding buffer is reduced to 0.25% and the wash step is done with binding buffer without BSA. This is to reduce BSA contamination of the purified receptor.
To compare the three biotinyl-SRIF analogs in terms of binding to streptavidin, the following experiment is done. [^125 I]Bio-SRIF analogs are bound to GH4 C1 membranes as described ("Methods: Receptor Binding Methods, 4"). All radioligands are at a concentration of 0.77×10^6 cpm/ml. For each radioligand, a control for non-specific binding is done in the presence of 1 uM cold S14. […] At the times shown, the SA beads are spun down and 100 ul samples of supernatant are counted. The cpm are compared to initial cpm in the sample and % binding to SA is calculated from this. […]

The mark [5] stands for this setting: GFB/PEI filters, triplicate, SE 5%.
[6] abbreviates: PEG precipitation, triplicate, SE 5%.

By Kd is commonly meant the equilibrium constant for the complex coming apart.

Where no end group is shown, it is not given here. The star is where a group is joined. 125I = [125I]*

For “[^125 I]Tyr11-S14: non-biotinylated radioligand, [^125 I]Tyr11-S14 (AGCKNFFWKTY(125I)TSC; ends and bridges not checked; UniProt P61278 103-116, looked up, variant F11Y)”, the “Initial cpm bound, nonspecific” value in test [1] (2 mg membrane protein in 8 ml, plus 1 uM cold S14) is listed as 0.65×10^6 cpm. In addition, the “Initial cpm bound, total” value in test [1] (2 mg membrane protein in 8 ml, total) is given as 1.43×10^6 cpm. The “peak I (void volume) share of total cpm” value in test [1] (1% CHAPS, Sephadex G-50) was 34 % of total cpm. Moreover, the “specifically bound ligand recovered, of initial specifically bound cpm on intact membranes” value in test [1] (1% CHAPS, Sephadex G-50 peak I) was determined as 11%. In addition, the “CPM in 100,000×g supernatant, nonspecific” value in test [1] (1% CHAPS, plus 1 uM cold S14) is reported as 0.29×10^6 CPM. Moreover, in test [1] (1% CHAPS, total), the “CPM in 100,000×g supernatant, total” value is recorded as 0.61×10^6 CPM. Also, the “Specifically bound ligand recovered (A-B)” value is 20,340 CPM in test [1] (GFB/PEI filters), 17,272 CPM in test [1] (PEG precipitation) and 16,840 CPM in test [1] (Sephadex G-50). In addition, the “CPM recovered, B. Nonspecific” value in test [1] (setting [5]) is reported as 7,193 CPM; in test [1] (setting [6]) it was 7,803 CPM; in test [1] (Sephadex G-50), 9,104 CPM. In addition, the “CPM recovered, A. Total” value in test [1] (setting [5]) was 27,533 CPM; in test [1] (setting [6]), 23,075 CPM; in test [1] (Sephadex G-50), 23,944 CPM. In addition, the Kd in test [2] was 0.1 nM.

For “biotinyl-NH(Leu8, D-Trp22, [^125 I]Tyr25)SRIF [[^125 I]Bio-S28]”, the “binding of solubilized R:L complex to immobilized streptavidin vs Bio-6C-S14 and Bio-12C-S14” value in test [3] is “binds somewhat better”. Further, the “Initial CPM” value in test [3] (100 ul of initial 100,000×g supernatant) was 92,534 CPM. The “% Binding of radioligand to SA-agarose, 1 hour” value in test [3] (1 hour) is on record as 66%. For the same substance, in test [3] (3 hours), the “% Binding of radioligand to SA-agarose, 3 hours” value was 82%. Moreover, in test [3] (supernatant after 1 hour with SA-agarose), the “Non-bound CPM, 1 hour” value is 31,645 CPM. Moreover, in test [3] (supernatant after 3 hours with SA-agarose), the “Non-bound CPM, 3 hours” value is 17,098 CPM. In test [4] (in presence of 1 uM cold S14), the “CPM bound/mg membrane protein, nonspecific” value is listed as 35,049 CPM bound/mg membrane protein. Further, in test [4] (total), the “CPM bound/mg membrane protein, total” value was 1,065,512 CPM bound/mg membrane protein. Moreover, in test [2], the Kd was 0.2 nM.

The record behind these values is US5225543A, “Receptors method for purification of G protein-linked” (priority 1991, dated 1993).
